Results taken from patent US20080306098A1, “Pharmacokinetics of protease inhibitors and other drugs” (priority 2006, published 2008).
Where two headings read alike, the source gives them in different places. Blank lines part the entries; values can stand above or below the molecule they belong to.

Assays:
[1] = in vivo; cited from earlier work
[2] = non-transplant patients; cited from earlier work
CYP3a4 = target: T1, CYP3a4 (Homo sapiens, UniProt P08684); test: Fluorescence-based CYP3a4 assay (Invitrogen VIVID probes), with or without recombinant human FKBP; format: in vitro ADME
T1 construct: purchased Invitrogen (Carlsbad, Calif.)
T1 sequence (P08684 whole entry): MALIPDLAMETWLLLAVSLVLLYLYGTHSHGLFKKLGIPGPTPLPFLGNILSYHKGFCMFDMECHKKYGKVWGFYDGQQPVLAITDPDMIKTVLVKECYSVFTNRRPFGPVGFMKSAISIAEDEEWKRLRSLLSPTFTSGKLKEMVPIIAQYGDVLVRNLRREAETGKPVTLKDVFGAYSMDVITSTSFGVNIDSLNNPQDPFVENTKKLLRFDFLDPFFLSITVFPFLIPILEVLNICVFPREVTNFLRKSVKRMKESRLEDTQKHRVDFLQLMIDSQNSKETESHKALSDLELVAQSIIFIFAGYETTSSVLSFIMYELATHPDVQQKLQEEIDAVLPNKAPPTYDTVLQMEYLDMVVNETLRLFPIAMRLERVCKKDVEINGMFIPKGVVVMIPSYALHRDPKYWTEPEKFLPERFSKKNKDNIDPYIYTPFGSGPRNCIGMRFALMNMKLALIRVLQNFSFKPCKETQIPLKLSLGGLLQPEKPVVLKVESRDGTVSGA
Source text: An amyloid ligand, curcumin, is known to be a good substrate for CYP3a4 (a common P450 enzyme). We investigated whether conjugates between curcumin and FK506 would also be substrates for the enzyme. To test this possibility, we utilized a well-known fluorescence-based CYP3a4 assay. This assay, marketed by Invitrogen (Carlsbad, Calif.), under the name VIVID probes, relies on cytochrome-mediated production of a fluorescent marker from a model substrate. When a compound, such as curcumin, binds to the P450, it displaces the substrate and reduces the rate of production of the fluorescent product. […] However, when we supplied a source of human FKBP (in this case, recombinant bacterially-expressed protein), we observed very different results as shown in FIG. 3. […] It is believed that FKBP protects the curcumin conjugates from degradation by sterically hindering CYP3a4 binding. In the presence of cellular FKBP sources, this effect would be predicted to be increased because the compartmentalization of the conjugate further reduces availability to P450 enzymes.

[3] = unmodified drug; cited from earlier work

SMILES: C=CC[C@@H]1/C=C(\C)C[C@H](C)C[C@H](OC)[C@H]2O[C@@](O)(C(=O)C(=O)N3CCCC[C@H]3C(=O)O[C@H](/C(C)=C/[C@@H]3CC[C@@H](O)[C@H](OC)C3)[C@H](C)[C@@H](O)CC1=O)[C@H](C)C[C@@H]2OC [FK506, FK506 (tacrolimus)]
distribution into protected cellular compartments (in the blood) [1]: 72-98%
half-life [2]: 21 h

protection from degradation by CYP3a4 (CYP3a4; in the presence of recombinant human FKBP): unable to protect
substrate for CYP3a4 (CYP3a4; without FKBP): good substrates
SMILES: COc1cc(/C=C/C(=O)CC(=O)/C=C/c2ccc(O)c(OC)c2)ccc1O [curcumin]

SMILES: CN(Cc1cnc2nc(N)nc(N)c2n1)c1ccc(C(=O)N[C@@H](CCC(=O)O)C(=O)O)cc1 [methotrexate]
half-life [3]: 6 h
